Data from ChEMBL document CHEMBL4177686, “Depsidone and xanthones from Garcinia xanthochymus with hypoglycemic activity and the mechanism of promoting glucose uptake in L6 myotubes” (Bioorg Med Chem, 2017).
Values belong to the molecule of their own block, whether it stands above or below them. Active and inactive are the calls of the source. No cut-off for these calls is given here.

Key:
L6 [1] = test: Cytotoxicity against rat L6 cells assessed as reduction in cell viability at 25 uM after 4 hrs by MTT assay; type: cell-based; details: l6, 4 h
L6 [2] = test: Increase in glucose uptake in rat L6 cells at 25 uM after 4 hrs relative to control; type: functional
L6 [3] = test: Cytotoxicity against rat L6 cells assessed as reduction in cell viability at 1 to 100 uM after 4 hrs by MTT assay; type: cell-based; details: l6, 4 h
L6 [4] = test: Increase in glucose uptake in rat L6 cells at <10 uM after 4 hrs; type: functional, cell-based
L6 [5] = test: Increase in glucose uptake in rat L6 cells at 100 uM after 4 hrs; type: functional, cell-based
L6 [6] = test: Increase in glucose uptake in rat L6 cells at 25 uM treated for 4 hrs post 15 mins PI3K inhibitor wortmanin treatment; type: functional, cell-based
L6 [7] = test: Increase in glucose uptake in rat L6 cells at 25 uM treated for 4 hrs post 30 mins AMPK inhibitor compound C treatment; type: functional, cell-based
[8] = target: RAC-alpha serine/threonine-protein kinase (Rattus norvegicus) (UniProt P47196); test: Activation of AKT in rat L6 cells assessed as GSK3beta phosphorylation at Ser 9 residues at 12.5 to 25 uM by Western blot analysis; type: cell-based
L6 [9] = test: Induction of AMPK phosphorylation at […] residues in rat L6 cells at 12.5 to 25 uM by Western blot analysis; type: cell-based
L6 [10] = test: Activation of AMPK phosphorylation in rat L6 cells assessed as ACC phosphorylation at Ser 79 residues at 12.5 to 25 uM by Western blot analysis; type: cell-based
L6 [11] = test: Activation of PI3K/AKT/AMPK in rat L6 cells transfected with mOrange dye-based IRAP assessed as increase in GLUT4 translocation at 25 uM measured every 5 mins for 30 mins by confocal microscopic analysis relative to basal control; type: cell-based
L6 [12] = test: Activation of PI3K/AKT/AMPK in rat L6 cells transfected with mOrange dye-based IRAP assessed as increase in GLUT4 translocation at 25 uM measured every 5 mins for 30 mins post 15 mins PI3K inhibitor wortmanin treatment by confocal microscopic analysis; type: cell-based
L6 [13] = test: Activation of PI3K/AKT/AMPK in rat L6 cells transfected with mOrange dye-based IRAP assessed as increase in GLUT4 translocation at 25 uM measured every 5 mins for 30 mins post 30 mins AMPK inhibitor compound C treatment by confocal microscopic analysis; type: cell-based
L6 [14] = test: Increase in glucose uptake in rat L6 cells at 10 to 25 uM after 4 hrs; type: functional, cell-based
L6 [15] = test: Increase in glucose uptake in rat L6 cells at 25 to 100 uM after 4 hrs; type: functional, cell-based
L6 [16] = test: Increase in glucose uptake in rat L6 cells at 25 uM after 2 to 4 hrs; type: functional, cell-based
[17] = target: RAC-alpha serine/threonine-protein kinase (Rattus norvegicus) (UniProt P47196); test: Induction of AKT phosphorylation at Ser 473 residues in rat L6 cells at 12.5 to 25 uM by Western blot analysis; type: cell-based
L6 [18] = test: Increase in glucose uptake in rat L6 cells at 2 mM after 4 hrs relative to control; type: functional
L6 [19] = test: Increase in glucose uptake in rat L6 cells at 2 mM treated for 4 hrs post 30 mins AMPK inhibitor compound C treatment; type: functional, cell-based
[20] = target: RAC-alpha serine/threonine-protein kinase (Rattus norvegicus) (UniProt P47196); test: Induction of AKT phosphorylation at Ser 473 residues in rat L6 cells by Western blot analysis; type: cell-based
L6 [21] = test: Induction of AMPK phosphorylation at […] residues in rat L6 cells at 25 uM by Western blot analysis; type: cell-based
L6 [22] = test: Activation of AMPK in rat L6 cells assessed as ACC phosphorylation at Ser 79 residues at 25 uM by Western blot analysis; type: cell-based

Chain of RAC-alpha serine/threonine-protein kinase (Rattus norvegicus) (P47196 whole entry): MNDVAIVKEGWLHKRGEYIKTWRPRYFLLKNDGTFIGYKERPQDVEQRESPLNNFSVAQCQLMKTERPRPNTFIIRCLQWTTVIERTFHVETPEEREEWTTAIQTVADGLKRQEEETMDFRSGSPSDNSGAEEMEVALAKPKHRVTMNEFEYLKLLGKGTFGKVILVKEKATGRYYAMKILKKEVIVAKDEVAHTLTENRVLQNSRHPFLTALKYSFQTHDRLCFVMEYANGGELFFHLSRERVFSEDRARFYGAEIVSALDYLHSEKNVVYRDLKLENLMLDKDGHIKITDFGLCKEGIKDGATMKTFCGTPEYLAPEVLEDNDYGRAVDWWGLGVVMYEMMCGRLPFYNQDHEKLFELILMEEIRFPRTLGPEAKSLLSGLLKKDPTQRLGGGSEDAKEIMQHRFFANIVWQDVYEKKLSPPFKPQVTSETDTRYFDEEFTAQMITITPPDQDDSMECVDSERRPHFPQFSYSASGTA

Compound: COc1c(O)ccc2c(=O)c3c(O)ccc(OC)c3oc12
- Activity (L6 [1]): Non-Toxic

Compound: CC(C)=CCC/C(C)=C/Cc1cc2c(=O)c3c(O)cc(O)cc3oc2c(O)c1O
- Activity (L6 [2]): inactive
- Activity (L6 [1]): Non-Toxic

Compound: CC(C)=CCc1cc(O)c(O)c2oc3cc(O)cc(O)c3c(=O)c12
- Activity (L6 [2]): inactive
- Activity (L6 [1]): Non-Toxic

- Activity [8]: Active
- Activity [17]: Active
Compound: C=CC(C)(C)c1cc(O)c(O)c2c(=O)c3cc(CC=C(C)C)c(O)c(O)c3oc12
- Activity (L6 [2]): 166.2%
- Activity (L6 [3]): Non-Toxic
- Activity (L6 [4]): inactive
- Activity (L6 [5]): inactive
- Activity (L6 [6]): Active
- Activity (L6 [7]): Active
- Activity (L6 [9]): Active
- Activity (L6 [10]): Active
- Activity (L6 [11]): Active
- Activity (L6 [12]): inactive
- Activity (L6 [13]): inactive
- Activity (L6 [1]): Non-Toxic
- Activity (L6 [14]): Active
- Activity (L6 [15]): inactive
- Activity (L6 [16]): Active

Compound: CC(C)=CCc1c(O)c(O)c2oc3c(CC=C(C)C)c(O)cc(O)c3c(=O)c2c1CC=C(C)C
- Activity (L6 [1]): Non-Toxic

Compound: O=c1c2cccc(O)c2oc2ccc(O)c(O)c12
- Activity (L6 [1]): Non-Toxic

Compound: CC(C)=CCc1c(O)c(O)c2oc3c(O)ccc(O)c3c(=O)c2c1CC=C(C)C
- Activity (L6 [1]): Non-Toxic

Compound: CC(C)=CCC/C(C)=C/Cc1c(O)c(O)c2oc3cc(O)cc(O)c3c(=O)c2c1CCC(C)(C)O
- Activity (L6 [1]): Non-Toxic

Compound: COc1cc(O)c2c(=O)c3cccc(O)c3oc2c1
- Activity (L6 [1]): Non-Toxic

Compound: CC(C)=CCc1c(O)c(O)c2oc3c(CC=C(C)C)c(O)cc(O)c3c(=O)c2c1CCC(C)(C)O
- Activity (L6 [1]): Non-Toxic

Compound: CN(C)C(=N)NC(=N)N [METFORMIN]
- Activity (L6 [18]): 167.2%
- Activity (L6 [19]): Active

Compound: CC1(C)C=Cc2c(c(O)c3oc4ccc(O)cc4c(=O)c3c2O)O1
- Activity (L6 [1]): Non-Toxic

Compound: CC(C)=CCc1c(O)cc(O)c2c(=O)c3cccc(O)c3oc12
- Activity (L6 [1]): Non-Toxic

Compound: CC(C)=CCC/C(C)=C/Cc1c(O)cc2c(c1O)C(=O)Oc1c(CC=C(C)C)cc(O)c(O)c1O2
- Activity (L6 [1]): Non-Toxic

Compound: COc1c2c(c(O)c3c(=O)c4c(O)ccc(O)c4oc13)C=CC(C)(C)O2
- Activity (L6 [1]): Non-Toxic

Compound: COc1c(O)c(CC=C(C)C)cc2c(=O)c3c(O)ccc(O)c3oc12
- Activity (L6 [1]): Non-Toxic

Compound: COc1c(O)ccc2oc3c(O)cccc3c(=O)c12
- Activity (L6 [1]): Non-Toxic

- Activity [20]: Dose-dependent effect
- Activity [8]: Active
- Activity [17]: Active
Compound: C=CC(C)(C)c1cc(O)c2oc3c(O)cccc3c(=O)c2c1O
- Activity (L6 [2]): 208.4%
- Activity (L6 [3]): Non-Toxic
- Activity (L6 [4]): inactive
- Activity (L6 [6]): inactive
- Activity (L6 [7]): Active
- Activity (L6 [21]): Active
- Activity (L6 [22]): Active
- Activity (L6 [11]): Active
- Activity (L6 [12]): inactive
- Activity (L6 [13]): inactive
- Activity (L6 [1]): Non-Toxic
- Activity (L6 [14]): Active
- Activity (L6 [15]): inactive
- Activity (L6 [16]): Active

Compound: CC(C)=CCc1c(O)c(O)c2oc3c4c(cc(O)c3c(=O)c2c1CC=C(C)C)OC(C)(C)C=C4
- Activity (L6 [2]): 195.28%
- Activity (L6 [1]): Non-Toxic

Compound: CC1(C)C=Cc2c(cc3oc4c(O)cccc4c(=O)c3c2O)O1
- Activity (L6 [1]): Non-Toxic

Compound: CC1(C)C=Cc2c(c(O)c3oc4c(O)ccc(O)c4c(=O)c3c2O)O1
- Activity (L6 [2]): inactive
- Activity (L6 [1]): Non-Toxic
